Measured values: US6497862B2, “Composition for inhibiting body odor and uses thereof” (Kabushiki Kaisha Hayashibara, priority 2000, dated 2002)
Values joined by “and” are separate entries in the source; they are usually repeats but may differ in a detail not shown here. Identical values can stand only once. Marks after values point to notes of the source that are not given here.

How the values were obtained:
healthy volunteer = experiment: Test on volunteer: volatile aldehydes collected from worn underwear (Experiment 7); type: in vivo, human
Method: The influence of saccharides on the formation of body odor from living bodies by applying trehalose to a healthy volunteer, under the following schedule: After soaking a towel in a 2% (w/w) aqueous trehalose solution, which had been boiled for five minutes and then cooled to about 40° C., at 10:30 a.m. on the day of starting a test, the volunteer as in a test system was allowed to wipe their whole body with the towel squeezed roughly to apply trehalose on the body surface, and made them to spend their daily life as usual after the drying of the applied aqueous trehalose solution. Thereafter, they were made to take a bath at 9 p.m. as usual and allowed to sufficiently wash their whole body including their hair. Just after bathing, a fresh preparation of aqueous trehalose solution was applied on the body surface similarly as above, then after drying the aqueous trehalose solution, they were made to wear an underwear and allowed to spend their daily life. At 5:30 p.m. on the next day after the initiation of the test, their worn underwear was collected, and tested for the presence and the content of volatile aldehydes in the underwear by the following procedures. As a control, on other day, the volunteer was allowed to wear a similar underwear as used in the test system according to the above test system except for replacing the aqueous trehalose solution with water, and then made them to spend their daily life, followed by collecting their underwear and analyzing them by the following procedures similarly as above.
As shown schematically in FIG. 1, an underwear 5 worn by the volunteer in each system was sealed after placed in a sealing vessel 1 immediately after the collection, and the gas in the sealing vessel 1 was pumped by an air pump 3 into a cartridge 4, “Superclean LpDNPH Cartridge”, with a lot No. LpDNPH S10L commercialized by Supelco Inc., Tokyo, Japan, to collect volatile aldehydes through a pipe 2 at ambient temperature of about 20° C., while the gas was continuously circulated through the sealed vessel 1 through the pipe 2 for one hour to collect in the cartridge 4 volatile aldehydes, as DNPH (dinitrophenylhydrazine), contained in the underwear 5. Thereafter, the cartridge 4 was removed and received two milliliters of acetonitrile by passing therethrough, followed by collecting an eluate from the cartridge 4. The collected eluate was analyzed on GC as follows.
“GAS CHROMATOGRAPH GC-14B”, as a GC apparatus produced by Shimadzu Corporation, Tokyo, Japan; and “TC-Wax CAPILLARY COLUMN”, a column for analysis, having 0.53 mm in inner diameter, 25 m in length, and 0.5 μm in thickness, produced by GL Sciences, Inc., Tokyo, Japan, were used. Helium gas was used as a carrier gas at a flow rate of 1 ml/min, and the temperature for a sample injection part was set to 240° C., while keeping a column thermostatic bath temperature at 50° C. for five minutes and then increasing the temperature up to 200° C. at a rate of 5° C./min. Using two microliters of an analysis sample as an injection volume, 1/30 volume of the injected sample was analyzed (split 1:30) by passing through the column for analysis while controlling the flow rate of the carrier gas at the sample injection part and using a hydrogen flame ionization detector for detection. As standard specimens, DNPH derivatives for each 2-nonenal, 2-octenal, hexanal, and nonanal were used and separately analyzed on GC under the conditions shown above. Based on the gas chromatograms from the above analyses, the content (μg) of respective 2-nonenal, 2-octenal. hexanal, and nonanal, collected form the underwears in the test system and control, was determined.

[1] = system: 16 healthy males, ranging from 48 to 75 years old; experiment: Test on 16 volunteers: KAREI-SHU aldehydes collected from worn underwears (Experiment 8); type: in vivo, human
Method: In accordance with the test on volunteer in Experiment 7, the following experiment was conducted with more volunteers, while focusing particularly on the formation inhibitory effect on KAREI-SHU by trehalose. The number of volunteers used in this experiment was 16 healthy males, ranging from 48 to 75 years old. Cotton-made half-sleeve underwears with substantially the same quality were purchased, washed with only water and dried twice in a cyclic manner for volunteers' use as underwears during the test period. As for towels and gauzes used by volunteers during the test period, those with substantially the same quality were purchased, washed with only water and dried twice in a cyclic manner for use. The initiation day of the test was expressed with day 0, and when the volunteers use body-odor-care-goods such as deodorants and bath salts daily, they were asked to suspend their use two days before the initiation of the test, i.e., day −2.
Until about 10 a.m. on day 0, each volunteer was in a usual manner asked to take a bath to sufficiently wash their bodies including hairs. After bathing, they were sequentially allowed to wipe water drops on the surface of their bodies with towels, allowed to wear the prepared underwears, and allowed to spend their daily life as usual.
At about 5 p.m. on day 1, the underwears worn by the volunteers were collected from them and, as underwears for a […], subjected to the following analysis.
Until 10 a.m. on day 1, each volunteer was allowed to take a bath similarly as done on day 0. Just after bathing, they were allowed to wipe water drops on their body surfaces with towels, and sprayed by a sprayer over upper half parts of their bodies with a 2% (w/w) aqueous trehalose solution, which had been previously prepared and provided to the volunteers, followed by extending the solution to homogeneity over the upper half parts in such a manner of tapping on the surfaces of the parts with gauzes, which had been previously soaked in a fresh preparation of the same solution as above. By repeating the steps of spraying and extending for several times before natural dryness, trehalose was applied over the surfaces of upper half parts of the volunteers. Thereafter, the volunteers were allowed to wear new underwears prepared previously and to spend their daily life as usual.
Until about 10 a.m. on day 2, each volunteer was allowed to take a bath similarly as done on day 0. Just after bathing, the volunteers were applied with trehalose over the surfaces of their upper half parts similarly as done on day 1, then allowed to wear new underwears prepared previously and spend their daily life as usual.
At about 5 p.m. on day 3, the underwears worn by the volunteers were collected from the volunteers and, as underwears for a […], subjected to the following analysis.
The underwears collected from the volunteers in the control and test systems were instantly treated by the method in Experiment 7, followed by collecting in a column volatile aldehydes as DNPH derivatives from the underwears. The DNPH derivatives collected in the column were subjected to analysis according to the method in Experiment 7. Using as standard specimens 2-nonenal, 2-octenal, and 2-hexenal, they were separately subjected to GC analysis under the same conditions as above. Based on the gas chromatograms obtained from the above analyses, the contents (μg) of 2-nonenal, 2-octenal, and 2-hexenal, collected from the underwears in the test and control systems, were respectively determined. Respective data obtained from all the volunteers are in Table 8.
As shown in the data of the control system in Table 8, 2-nonenal, 2-octenal and 2-hexenal, known as substances causative of KAREI-SHU, were particularly detected in the underwears from volunteers age over 56. […]

[2] = individual volunteers A-P (age 48-75), 2% (w/w) aqueous trehalose solution on upper half of body

| SMILES | formation of body odor (healthy volunteer; experiment using maltitol in place of trehalose) | Content of volatile aldehydes collected from underwear, 2-Nonenal (healthy volunteer; 2% (w/w) aqueous trehalose solution applied on the body surface, control 7.05) [µg] | Content of volatile aldehydes collected from underwear, Hexanal (healthy volunteer; 2% (w/w) aqueous trehalose solution on the body surface, control 5.39, * means no detection) | Content of volatile aldehydes collected from underwear, 2-Octenal (healthy volunteer; 2% (w/w) aqueous trehalose solution on the body surface, control 8.61, * means no detection) | Content of volatile aldehydes collected from underwear, Nonanal (healthy volunteer; 2% (w/w) aqueous trehalose solution on the body surface, control 10.93, * means no detection) | 2-nonenal in underwear, level relative to control (healthy volunteer; trehalose applied on the body surface versus water control) | Content of 2-Hexenal collected from volunteers' underwears, mean ± standard deviation, with trehalose application ([1]; Age 54 or under (n = 8), control 0.06 ± 0.18) | Content of 2-Nonenal collected from volunteers' underwears, mean ± standard deviation, with trehalose application ([1]; Age 54 or under (n = 8), control 0.19 ± 0.21) | Content of 2-Octenal collected from volunteers' underwears, mean ± standard deviation, with trehalose application ([1]; Age 54 or under (n = 8), control 1.00 ± 1.00, p < 0.05 to control) | Total content of 2-nonenal, 2-octenal and 2-hexenal collected from volunteers' underwears, mean ± standard deviation, with trehalose application ([1]; Age 54 or under (n = 8), control 1.26 ± 1.02, p < 0.05 to control) | Content of 2-Hexenal collected from volunteers' underwears, mean ± standard deviation, with trehalose application ([1]; Age 56 or higher (n = 8), control 5.44 ± 4.39, p < 0.05 to control) | Content of 2-Octenal collected from volunteers' underwears, mean ± standard deviation, with trehalose application ([1]; Age 56 or higher (n = 8), control 5.51 ± 3.71, p < 0.05 to control) | Content of 2-Nonenal collected from volunteers' underwears, mean ± standard deviation, with trehalose application ([1]; Age 56 or higher (n = 8), control 6.61 ± 3.75, p < 0.05 to control) | Total content of 2-nonenal, 2-octenal and 2-hexenal collected from volunteers' underwears, mean ± standard deviation, with trehalose application ([1]; Age 56 or higher (n = 8), control 17.17 ± 10.14, p < 0.01 to control) | Content of volatile aldehydes collected from volunteer, 2-Hexenal, with trehalose application (test system) [1, 2] | Content of volatile aldehydes collected from volunteer, 2-Octenal, with trehalose application (test system) [1, 2] | Content of volatile aldehydes collected from volunteer, Nonenal, with trehalose application (test system) [1, 2] | Content of volatile aldehydes collected from volunteer, Total of 2-nonenal, 2-octenal and 2-hexenal, with trehalose application (test system) [1, 2] |
| --- | --- | --- | --- | --- | --- | --- | --- | --- | --- | --- | --- | --- | --- | --- | --- | --- | --- | --- |
| OC[C@@H](O)[C@@H](O[C@H]1O[C@H](CO)[C@@H](O)[C@H](O)[C@H]1O)[C@H](O)[C@@H](O)CO [Maltitol, maltitol] | well inhibits the formation of body odor similarly as trehalose | – | – | – | – | – | – | – | – | – | – | – | – | – | – | – | – | – |
| OC[C@H]1O[C@H](O[C@H]2O[C@H](CO)[C@@H](O)[C@H](O)[C@H]2O)[C@H](O)[C@@H](O)[C@@H]1O [Trehalose, trehalose] | – | 3.72 | undetectable level | undetectable level | undetectable level | about 53% | 0.09 ± 0.24^ μg | 0.19 ± 0.40^ μg | 0.21 ± 0.36^a μg | 0.48 ± 0.50^a μg | 0.71 ± 1.65^a μg | 2.59 ± 1.92^a μg | 2.11 ± 1.87^a μg | 5.40 ± 4.66^b μg | 0.00 μg (13×) and 0.68 μg and 0.95 μg and 4.70 μg | 0.24 μg and 0.28 μg and 1.04 μg and 0.00 μg (5×) and 1.82 μg and 1.07 μg and 2.59 μg and 1.13 μg and 5.43 μg and 4.24 μg and 4.42 μg and 0.11 μg | 0.17 μg and 0.00 μg (6×) and 0.18 μg and 1.17 μg and 1.66 μg and 1.10 μg and 1.41 μg and 0.35 μg and 2.71 μg and 4.65 μg and 4.99 μg | 0.41 μg and 0.97 μg and 1.04 μg and 0.18 μg and 1.17 μg and 3.48 μg and 1.10 μg and 1.07 μg and 4.96 μg and 1.47 μg and 8.14 μg and 8.89 μg and 14.12 μg and 0.00 μg (2×) and 0.11 μg |
